In US20090181963A1, “3H-[1,2,3]TRIAZOLO[4,5-D]PYRIMIDINE COMPOUNDS, THEIR USE AS mTOR KINASE AND PI3 KINASE INHIBITORS, AND THEIR [sequence]” (Wyeth, priority 2008, published 2009):

Key:
PI3 Kinase γ = PI3 Kinase γ (Homo sapiens, UniProt P48736); assay: Fluorescence polarization assay for PI3K (PI3 Kinase γ); type: biochemical; settings: diC8-PI(4,5)P2 substrate, 25 μM ATP, one hour at 25° C.
PI3 Kinase α = PI3 Kinase α (Homo sapiens, UniProt P42336); assay: Fluorescence polarization assay for PI3K (PI3 Kinase α); type: biochemical; settings: diC8-PI(4,5)P2 substrate, 25 μM ATP, one hour at 25° C.
Sequence of PI3 Kinase α (P42336 whole entry): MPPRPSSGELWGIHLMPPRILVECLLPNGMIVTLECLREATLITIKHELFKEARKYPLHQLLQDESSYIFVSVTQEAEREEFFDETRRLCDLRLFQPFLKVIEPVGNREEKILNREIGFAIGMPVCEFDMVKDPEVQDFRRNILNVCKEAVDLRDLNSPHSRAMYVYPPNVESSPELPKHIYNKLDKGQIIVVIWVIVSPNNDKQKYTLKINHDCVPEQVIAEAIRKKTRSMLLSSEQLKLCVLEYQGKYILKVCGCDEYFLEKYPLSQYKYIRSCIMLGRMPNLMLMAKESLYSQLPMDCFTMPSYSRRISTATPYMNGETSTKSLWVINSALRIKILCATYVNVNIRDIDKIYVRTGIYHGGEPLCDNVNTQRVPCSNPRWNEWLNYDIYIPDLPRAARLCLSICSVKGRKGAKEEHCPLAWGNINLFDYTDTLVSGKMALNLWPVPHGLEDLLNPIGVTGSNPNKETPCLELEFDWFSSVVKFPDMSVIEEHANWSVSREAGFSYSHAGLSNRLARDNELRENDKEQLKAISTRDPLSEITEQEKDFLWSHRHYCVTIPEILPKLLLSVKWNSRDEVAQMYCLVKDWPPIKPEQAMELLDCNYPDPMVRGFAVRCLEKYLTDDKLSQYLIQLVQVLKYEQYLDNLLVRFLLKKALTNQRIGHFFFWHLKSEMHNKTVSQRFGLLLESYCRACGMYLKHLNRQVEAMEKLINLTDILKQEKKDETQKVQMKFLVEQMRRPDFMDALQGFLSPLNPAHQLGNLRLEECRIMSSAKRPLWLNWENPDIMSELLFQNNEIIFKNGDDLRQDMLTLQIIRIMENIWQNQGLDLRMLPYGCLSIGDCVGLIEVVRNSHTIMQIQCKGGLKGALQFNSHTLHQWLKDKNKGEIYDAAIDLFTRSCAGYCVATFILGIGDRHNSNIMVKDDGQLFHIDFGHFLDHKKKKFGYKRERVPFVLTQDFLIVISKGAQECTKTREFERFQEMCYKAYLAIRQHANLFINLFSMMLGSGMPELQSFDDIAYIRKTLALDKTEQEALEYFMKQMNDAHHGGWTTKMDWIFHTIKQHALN
Sequence of PI3 Kinase α (P27986 whole entry partner): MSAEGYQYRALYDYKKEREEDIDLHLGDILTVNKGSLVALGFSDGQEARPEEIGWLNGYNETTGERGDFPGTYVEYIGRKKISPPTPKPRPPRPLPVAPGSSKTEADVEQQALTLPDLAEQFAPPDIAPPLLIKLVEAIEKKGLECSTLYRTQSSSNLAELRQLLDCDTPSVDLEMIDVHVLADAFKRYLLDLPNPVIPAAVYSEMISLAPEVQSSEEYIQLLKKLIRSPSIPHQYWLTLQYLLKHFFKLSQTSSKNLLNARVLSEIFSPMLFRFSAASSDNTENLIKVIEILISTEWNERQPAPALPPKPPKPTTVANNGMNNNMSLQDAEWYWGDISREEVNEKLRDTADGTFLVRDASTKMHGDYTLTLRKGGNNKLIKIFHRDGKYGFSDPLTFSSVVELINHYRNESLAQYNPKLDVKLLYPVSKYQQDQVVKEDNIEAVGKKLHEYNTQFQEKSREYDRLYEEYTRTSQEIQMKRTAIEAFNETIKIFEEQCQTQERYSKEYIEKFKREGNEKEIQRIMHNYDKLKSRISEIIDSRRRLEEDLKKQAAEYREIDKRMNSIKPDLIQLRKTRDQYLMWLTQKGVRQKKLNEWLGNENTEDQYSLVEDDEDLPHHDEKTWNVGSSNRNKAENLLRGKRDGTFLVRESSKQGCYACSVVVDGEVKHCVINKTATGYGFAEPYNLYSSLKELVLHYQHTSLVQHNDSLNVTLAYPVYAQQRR

Sequence of PI3 Kinase γ (P48736 whole entry): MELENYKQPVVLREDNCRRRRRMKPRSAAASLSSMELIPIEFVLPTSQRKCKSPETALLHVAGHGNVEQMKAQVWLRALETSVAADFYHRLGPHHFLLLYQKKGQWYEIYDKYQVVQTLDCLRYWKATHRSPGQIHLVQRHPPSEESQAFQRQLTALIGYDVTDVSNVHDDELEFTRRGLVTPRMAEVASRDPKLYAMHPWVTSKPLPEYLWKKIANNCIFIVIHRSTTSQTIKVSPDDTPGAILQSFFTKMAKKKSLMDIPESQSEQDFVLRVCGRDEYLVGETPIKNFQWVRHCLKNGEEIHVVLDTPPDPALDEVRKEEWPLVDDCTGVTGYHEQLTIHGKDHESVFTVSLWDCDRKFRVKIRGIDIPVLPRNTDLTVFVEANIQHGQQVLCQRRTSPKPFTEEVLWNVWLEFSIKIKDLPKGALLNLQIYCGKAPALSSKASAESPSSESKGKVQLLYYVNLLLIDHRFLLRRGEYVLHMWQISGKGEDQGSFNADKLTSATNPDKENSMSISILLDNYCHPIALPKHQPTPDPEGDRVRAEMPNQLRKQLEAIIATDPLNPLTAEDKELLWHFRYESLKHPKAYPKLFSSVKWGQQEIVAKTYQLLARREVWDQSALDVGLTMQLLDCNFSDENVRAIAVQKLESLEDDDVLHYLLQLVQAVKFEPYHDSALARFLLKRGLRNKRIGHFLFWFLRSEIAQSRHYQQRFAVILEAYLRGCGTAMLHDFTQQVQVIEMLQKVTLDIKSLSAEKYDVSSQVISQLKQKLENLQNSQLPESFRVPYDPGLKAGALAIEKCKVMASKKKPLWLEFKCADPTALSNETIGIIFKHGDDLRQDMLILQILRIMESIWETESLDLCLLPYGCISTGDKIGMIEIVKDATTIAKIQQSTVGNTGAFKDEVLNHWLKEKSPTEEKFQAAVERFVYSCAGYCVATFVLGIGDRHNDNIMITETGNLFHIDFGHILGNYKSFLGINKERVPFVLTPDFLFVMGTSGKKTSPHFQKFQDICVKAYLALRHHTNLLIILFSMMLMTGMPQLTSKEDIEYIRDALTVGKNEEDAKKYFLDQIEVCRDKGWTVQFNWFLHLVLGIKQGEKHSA

| IC50 (PI3 Kinase γ) [nM] | IC50 (PI3 Kinase α) [nM] | Compound |
| --- | --- | --- |
| 956 | 285 | OCc1cncc(-c2nc(N3CCOCC3)c3nnn(C4CCNCC4)c3n2)c1 [Example 174, [5-(7-morpholin-4-yl-3-piperidin-4-yl-3H-[1,2,3]triazolo[4,5-d]pyrimidin-5-yl)pyridin-3-yl]methanol] |
| 1910 | 90 | C[C@H](NC(=O)c1ccc(Cn2nnc3c(N4CCOCC4)nc(-c4cccc(O)c4)nc32)cc1)c1ccccc1 [Example 224, 4-{[5-(3-hydroxyphenyl)-7-morpholin-4-yl-3H-[1,2,3]triazolo[4,5-d]pyrimidin-3-yl]methyl}-N-[(1S)-1-phenylethyl]benzamide] |
| 108 | 13 | CN(C)CCNC(=O)Nc1ccc(-c2nc(N3CCOCC3)c3nnn(C4CCN(Cc5ccc(-c6ccncc6)cc5)CC4)c3n2)cc1 [Example 160, 1-(2-(dimethylamino)ethyl)-3-(4-(7-morpholino-3-(1-(4-(pyridin-4-yl)benzyl)piperidin-4-yl)-3H-[1,2,3]triazolo[4,5-d]pyrimidin-5-yl)phenyl)urea] |
| 3790 | 189 | CC(C)(C)OC(=O)N1CCC(n2nnc3c(N4CCOCC4)nc(-c4cccc(O)c4)nc32)CC1 [Example 143, tert-butyl 4-[5-(3-hydroxyphenyl)-7-morpholin-4-yl-3H-[1,2,3]triazolo[4,5-d]pyrimidin-3-yl]piperidine-1-carboxylate] |
| 88.5 | 8 | CCn1nnc2c(N3CCOC[C@@H]3C)nc(-c3ccc(NC(=O)Nc4cccnc4)cc3)nc21 [Example 72, (S)-1-(4-(3-ethyl-7-(3-methylmorpholino)-3H-[1,2,3]triazolo[4,5-d]pyrimidin-5-yl)phenyl)-3-(pyridin-3-yl)urea] |
| 2860 | 231 | Cn1nccc1CN1CCC(n2nnc3c(N4CCOCC4)nc(-c4cncc(O)c4)nc32)CC1 [Example 30, 5-(3-{1-[(1-methyl-1H-pyrazol-5-yl)methyl]piperidin-4-yl}-7-morpholin-4-yl-3H-[1,2,3]triazolo[4,5-d]pyrimidin-5-yl)pyridin-3-ol] |
| 4910 | 630 | COC(=O)c1ccc(Cn2nnc3c(N4CCOCC4)nc(-c4cccc(O)c4)nc32)cc1 [Example 241, methyl 4-{[5-(3-hydroxyphenyl)-7-morpholin-4-yl-3H-[1,2,3]triazolo[4,5-d]pyrimidin-3-yl]methyl}benzoate] |
| 748 | 296 | CN(C)CCNC(=O)Nc1ccc(-c2nc(N3CCOCC3)c3nnn(C4CCN(C(=O)OC(C)(C)C)CC4)c3n2)cc1 [Example 151, tert-butyl 4-(5-(4-(3-(2-(dimethylamino)ethyl)ureido)phenyl)-7-morpholino-3H-[1,2,3]triazolo[4,5-d]pyrimidin-3-yl)piperidine-1-carboxylate] |
| 842 | 509 | O=C(O)c1ccc(Cn2nnc3c(N4CCOCC4)nc(-c4cccc(O)c4)nc32)cc1 [Example 242, 4-{[5-(3-hydroxyphenyl)-7-morpholin-4-yl-3H-[1,2,3]triazolo[4,5-d]pyrimidin-3-yl]methyl}benzoic acid] |
| 9110 | 1410 | CCn1nnc2c(N3CCOCC3)nc(-c3ccc(N)c(OC)c3)nc21 [Example 175, 4-(3-ethyl-7-morpholin-4-yl-3H-[1,2,3]triazolo[4,5-d]pyrimidin-5-yl)-2-methoxyaniline] |
| 108 | 132 | NCCCCn1nnc2c(N3CCOCC3)nc(-c3cccc(O)c3)nc21 [Example 204, 3-[3-(4-Aminobutyl)-7-morpholin-4-yl-3H-[1,2,3]triazolo[4,5-d]pyrimidin-5-yl]phenol] |
| 1920 | 1260 | O=C(c1ccc(F)c(F)c1)N1CCN(CCn2nnc3c(N4CCOCC4)nc(-c4cccc(O)c4)nc32)CC1 [Example 102, 3-(3-{2-[4-(3,4-difluorobenzoyl)piperazin-1-yl]ethyl}-7-morpholin-4-yl-3H-[1,2,3]triazolo[4,5-d]pyrimidin-5-yl)phenol] |
| 49 | 10.5 | Cn1nnc2c(N3CCOCC3)nc(-c3ccc(NC(=O)Nc4cccnc4)cc3)nc21 [Example 199, 1-[4-(3-methyl-7-morpholin-4-yl-3H-[1,2,3]triazolo[4,5-d]pyrimidin-5-yl)phenyl]-3-pyridin-3-ylurea] |
| 30 | 9.5 | O=C(Nc1ccc(-c2nc(N3CCOCC3)c3nnn(CC(F)(F)F)c3n2)cc1)Nc1cccnc1 [Example 135, 1-{4-[7-morpholin-4-yl-3-(2,2,2-trifluoroethyl)-3H-[1,2,3]triazolo[4,5-d]pyrimidin-5-yl]phenyl}-3-pyridin-3-ylurea] |
| 152 | 67.5 | COC(Cn1nnc2c(N3CCOCC3)nc(-c3ccc(NC(=O)Nc4ccc(F)cc4)cc3)nc21)OC [Example 180, 1-{4-[3-(2,2-dimethoxyethyl)-7-morpholin-4-yl-3H-[1,2,3]triazolo[4,5-d]pyrimidin-5-yl]phenyl}-3-(4-fluorophenyl)urea] |
| 102 | 27.5 | O=C(O)c1cccc(-n2nnc3c(N4CCOCC4)nc(-c4cccc(O)c4)nc32)c1 [Example 118, 3-[5-(3-hydroxyphenyl)-7-morpholin-4-yl-3H-[1,2,3]triazolo[4,5-d]pyrimidin-3-yl]benzoic acid] |
| 1960 | 130 | Oc1cccc(-c2nc(N3CCOCC3)c3nnn(C4CNC4)c3n2)c1 [Example 125, 3-(3-azetidin-3-yl-7-morpholin-4-yl-3H-[1,2,3]triazolo[4,5-d]pyrimidin-5-yl)phenol] |
| 15.5 | 3.3 | CCNC(=O)c1ccc(NC(=O)Nc2ccc(-c3nc(N4CCOCC4)c4nnn(CC)c4n3)cc2)cc1 [Example 64, N-ethyl-4-({[4-(3-ethyl-7-morpholin-4-yl-3H-[1,2,3]triazolo[4,5-d]pyrimidin-5-yl)phenyl]carbamoyl}amino)benzamide] |
| 1210 | 332 | Oc1cccc(-c2nc(N3CCOCC3)c3nnn(CCCCN4CCCC4)c3n2)c1 [Example 205, 3-[7-Morpholin-4-yl-3-(4-pyrrolidin-1-ylbutyl)-3H-[1,2,3]triazolo[4,5-d]pyrimidin-5-yl]phenol] |
| 3550 | 538 | O=C(c1ccc(F)cc1)N1CCN(CCn2nnc3c(N4CCOCC4)nc(-c4cccc(O)c4)nc32)CC1 [Example 101, 3-(3-{2-[4-(4-fluorobenzoyl)piperazin-1-yl]ethyl}-7-morpholin-4-yl-3H-[1,2,3]triazolo[4,5-d]pyrimidin-5-yl)phenol] |
| 210 | 31 | CN(C)CCCOc1ccc(CN2CC(Cn3nnc4c(N5CCOCC5)nc(-c5ccc(NC(=O)Nc6ccccc6)cc5)nc43)C2)cc1 [Example 194, 1-(4-{3-[(1-{4-[3-(Dimethylamino)propoxy]benzyl}azetidin-3-yl)methyl]-7-morpholin-4-yl-3H-[1,2,3]triazolo[4,5-d]pyrimidin-5-yl}phenyl)-3-phenylurea] |
| 111 | 31 | Oc1cncc(-c2nc(N3CCOCC3)c3nnn(C4CCN(Cc5ccco5)CC4)c3n2)c1 [Example 13, 5-{3-[1-(2-furylmethyl)piperidin-4-yl]-7-morpholin-4-yl-3H-[1,2,3]triazolo[4,5-d]pyrimidin-5-yl}pyridin-3-ol] |
| 144 | 61 | CN(C)CCNC(=O)Nc1ccc(-c2nc(N3CCOCC3)c3nnn(C4CCN(Cc5ccc(F)nc5)CC4)c3n2)cc1 [Example 157, 1-(2-(dimethylamino)ethyl)-3-(4-(3-(1-((6-fluoropyridin-3-yl)methyl)piperidin-4-yl)-7-morpholino-3H-[1,2,3]triazolo[4,5-d]pyrimidin-5-yl)phenyl)urea] |
| 11 | 1.7 | CCn1nnc2c(N3CCOCC3)nc(-c3ccc(NC(=O)Nc4ccc(C(=O)NCCN5CCCCC5)cc4)cc3)nc21 [Example 56, 4-({[4-(3-ethyl-7-morpholin-4-yl-3H-[1,2,3]triazolo[4,5-d]pyrimidin-5-yl)phenyl]carbamoyl}amino)-N-(2-piperidin-1-ylethyl)benzamide] |
| 766 | 78 | O=C(NCc1ccccc1)c1ccc(Cn2nnc3c(N4CCOCC4)nc(-c4cccc(O)c4)nc32)cc1 [Example 212, N-benzyl-4-{[5-(3-hydroxyphenyl)-7-morpholin-4-yl-3H-[1,2,3]triazolo[4,5-d]pyrimidin-3-yl]methyl}benzamide] |
| 1800 | 5630 | CCn1nnc2c(N3CCOCC3)nc(-c3ccc(NC(=O)NC4CCN(C(=O)OCc5ccccc5)CC4)cc3)nc21 [Example 65, benzyl 4-({[4-(3-ethyl-7-morpholin-4-yl-3H-[1,2,3]triazolo[4,5-d]pyrimidin-5-yl)phenyl]carbamoyl}amino)piperidine-1-carboxylate] |
| > 10000 | 1340 | COC(Cn1nnc2c(N3CCOCC3)nc(-c3ccc(N)cc3)nc21)OC [Example 178, 4-[3-(2,2-dimethoxyethyl)-7-morpholin-4-yl-3H-[1,2,3]triazolo[4,5-d]pyrimidin-5-yl]aniline] |
| 895 | 179 | CCn1nnc2c(N3CCOCC3)nc(-c3ccc(NC(=O)Nn4cnnc4)cc3)nc21 [Example 36, 1-[4-(3-ethyl-7-morpholin-4-yl-3H-[1,2,3]triazolo[4,5-d]pyrimidin-5-yl)phenyl]-3-(4H-1,2,4-triazol-4-yl)urea] |
| 734 | 59 | Oc1cccc(-c2nc(N3CCOCC3)c3nnn(C4CCN(Cc5ccc(F)cc5)CC4)c3n2)c1 [Example 147, 3-{3-[1-(4-fluorobenzyl)piperidin-4-yl]-7-morpholin-4-yl-3H-[1,2,3]triazolo[4,5-d]pyrimidin-5-yl}phenol] |
| 342 | 142 | COC(Cn1nnc2c(N3CCOCC3)nc(-c3ccc(NC(=O)Nc4ccc(C)cc4)cc3)nc21)OC [Example 179, 1-{4-[3-(2,2-dimethoxyethyl)-7-morpholin-4-yl-3H-[1,2,3]triazolo[4,5-d]pyrimidin-5-yl]phenyl}-3-(4-methylphenyl)urea] |
